Source: article PMC9290910, “Neuropilin‐1 is required for endothelial cell adhesion to soluble vascular endothelial growth factor receptor 1” (The Febs Journal, 2021)
Where no end group is shown, it is not given here.

Legend:
α5β1 integrin = system: α5β1 integrin; design: method as in 2 sources, one per row (each row's own in cited_ref): ref 34, 36 = [34]; PMID 18184864; doi:10.1182/blood-2007-03-077537; 34 Soro S , Orecchia A , Morbidelli L , Lacal PM , Morea V , Ballmer‐Hofer K , Ruffini F , Ziche M , D'Atri S , Zambruno G et al . ( 2008 ) A proangiogenic peptide derived from vascular endothelial gr || [36]; PMID 18682321; doi:10.1016/j.ejca.2008.06.032; 36 Lacal PM , Morea V , Ruffini F , Orecchia A , Dorio AS , Failla CM , Soro S , Tentori L , Zambruno G , Graziani G et al . ( 2008 ) Inhibition of endothelial cell migration and angiogenesis by a vas ||| ref 34 = [34]; PMID 18184864; doi:10.1182/blood-2007-03-077537; 34 Soro S , Orecchia A , Morbidelli L , Lacal PM , Morea V , Ballmer‐Hofer K , Ruffini F , Ziche M , D'Atri S , Zambruno G et al . ( 2008 ) A proangiogenic peptide derived from vascular endothelial gr; details: cited from earlier work
[1] = system: EC (HUVEC) adhesion to peptide 12; assay: Cell adhesion assay, EC adhesion to peptide 12; assay type: cell-based, human; details: plates coated with 500 µg·mL^−1 peptide 12
Description: Human umbilical vein endothelial cells (HUVEC) were isolated from freshly delivered umbilical cords, as previously described, cultured in Endothelial Cell Growth Medium‐2 Kit from Clonetics (EGM‐2, CC4176, Lonza, Basel, Switzerland), and used up to passage 6. For functional assays, HUVEC were resuspended in Endothelial Basal Medium‐2 (EBM‐2, CC3156, Lonza). A pool of cells derived from four different individuals was used.
Solid support for adhesion assay was prepared by incubating immunological 96‐multiwell plates with 20 µg·mL^−1 VEGFR‐1/Fc chimera, or fibronectin solubilized in PBS. After 2 h, the coating solution was removed, and the well surface was blocked with 3% BSA in PBS for 18 h, before plating ECs in serum‐free medium at 3 × 10^4 cells per well. After incubation at 37 °C for 1 h, the wells were washed with PBS and attached cells were fixed with 3% formaldehyde and stained with 0.5% crystal violet. Attachment efficiency was determined by quantitative dye extraction and spectrophotometric measurement of the absorbance at 540 nm, using a Microplate reader 3550‐UV (Bio‐Rad). In competition experiments, peptides Flt2‐11, scrambled Flt2‐11, Flt2‐8 or Flt2‐5, at 20 µg·mL^−1, were added during the adhesion assay. Adhesion to peptide 12 was carried out by using maleic anhydride activated microplates (Reacti‐Bind, Pierce, Rockford, IL, USA) coated with 500 µg·mL^−1 of the peptide.

[2] = system: α5β1 integrin signalling in ECs; assay: Signalling activated by EC adhesion; assay type: cell-based; details: myristoylated alanine‐rich C‐kinase substrate up-regulation, Rac1 activation; data not shown
[3] = system: EC (HUVEC) adhesion to peptide 12; details: cited from earlier work
From the text: (§1) To dissect whether interaction of NRP‐1 with the transmembrane or the soluble isoform of VEGFR‐1 was required for EC adhesion to sVEGFR‐1, we performed EC adhesion assays by substituting sVEGFR‐1 with a different adhesion substrate, named peptide 12.

angiogenesis = details: cited from earlier work
From the text: as §1

[4] = system: α5β1 integrin signalling in ECs; design: method as in PMID 24174428; details: phosphorylation of focal adhesion kinase or Shc; cited from earlier work
NRP‐1 = assay: SPR, VEGFR‐1 binding to immobilized NRP‐1; design: species or system human; details: NRP‐1 immobilized, VEGFR‐1 0.6-5 nM, 1:1 Langmuir model
Description: Fig. 2 Flt2‐11 peptide inhibits NRP‐1 binding to VEGFR‐1. SPR analysis of the interaction between VEGFR‐1 and NRP‐1 in peptide absence (A), or presence of Flt2‐11 peptide (B) or scrambled Flt2‐11 peptide (C). NRP‐1 is immobilized on the sensor chip. (A) VEGFR‐1 is injected at different concentrations (from bottom to top: 0.6 nM, cyan; 1 nM, red; 2 nM, green; 2.5 nM, blue; and 5 nM, black). […] (B) VEGFR‐1 is injected at 5 nM together with peptide Flt2‐11 at different concentrations (from top to bottom: 0, black; 5 nM, blue; 15 nM, green; 45 nM, red; 100 nM, cyan; and 800 nM, magenta). […] (C) VEGFR‐1 is injected at 5 nM together with ‘scrambled’ Flt2‐11 peptide at different concentrations (from top to bottom: 0, black; 0.5 μM, blue; 950 μM, geen; and […], red).
SPR experiments were carried out using a BIACORE X system (Biacore AB, Uppsala, Sweden). […] The reaction was carried out in 20 mM sodium acetate at pH 5.0, which is about 2 points below the theoretical NRP‐1 isoelectric point calculated using the program pI‐tool. […]
RU express the mass concentration‐dependent changes in the observed SPR signal, that is, the refractive index on the sensor chip surface. Changes in this signal are determined by the interaction between the immobilized protein (i.e., either NRP‐1 or VEGFR‐1) with the analyte protein (i.e., VEGFR‐1/Fc, α5β1 integrin or semaphorin 3A). […]

Row | Molecule | binding to α5β1 integrin (α5β1 integrin) | EC adhesion to peptide 12 in the absence of NRP‐1 [1] | signalling pathway activation by EC adhesion to peptide 12 [2] | support of EC adhesion by peptide 12 [3] | pro‐angiogenic stimulus (angiogenesis) | activation of canonical α5β1 integrin signalling by EC adhesion to sVEGFR‐1 [4] | k off (NRP‐1) [s⁻¹] | k on (NRP‐1) [M⁻¹ s⁻¹]
1 | peptide 12: seven amino acid‐long peptide that maps on the second VEGFR‐1 Ig‐like domain (residues 219–225) (NYLTHRQ; also: biotin, position not given here) | able to directly bind α5β1 integrin | ECs adhere to peptide 12 in the absence of NRP‐1 | also activated | support EC adhesion | pro‐angiogenic stimulus | – | – | –
2 | VEGFR‐1: Recombinant human VEGFR‐1/Fc (321‐FL‐050), R&D Systems (protein, left off: Fc, end not stated, kept, Recombinant human VEGFR‐1/Fc (321‐FL‐050), R&D Systems) SKLKDPELSLKGTQHIMQAGQTLHLQCRGEAAHKWSLPEMVSKESERLSITKSACGRNGKQFCSTLTLNTAQANHTGFYSCKYLAVPTSKKKETESAIYIFISDTGRPFVEMYSEIPEIIHMTEGRELVIPCRVTSPNITVTLKKFPLDTLIPDGKRIIWDSRKGFIISNATYKEIGLLTCEATVNGHLYKTNYLTHRQTNTIIDVQISTPRPVKLLRGHTLVLNCTATTPLNTRVQMTWSYPDEKNKRASVRRRIDQSNSHANIFYSVLTIDKMQNKDKGLYTCRVRSGPSFKSVNTSVHIYDKAFITVKHRKQQVLETVAGKRSYRLSMKVKAFPSPEVVWLKDGLPATEKSARYLTRGYSLIIKDVTEEDAGNYTILLSIKQSNVFKNLTATLIVNVKPQIYEKAVSSFPDPALYPLGSRQILTCTAYGIPQPTIKWFWHPCNHNHSEARCDFCSNNEESFILDADSNMGNRIESITQRMAIIEGKNKMASTLVVADSRISGIYICIASNKVGTVGRNISFYITDVPNGFHVNLEKMPTEGEDLKLSCTVNKFLYRDVTWILLRTVNNRTMHYSISKQKMAITKEHSITLNLTIMNVSLQDSGTYACRARNVYTGEEILQKKEITIRDQEAPYLLRNLSDHTVAISSSTTLDCHANGVPEPQITWFKNNHKIQQEPGIILGPGSSTLFIERVTEEDEGVYHCKATNQKGSVESSAYLTVQGTSDKSNLE | – | – | – | – | – | does not activate canonical α5β1 integrin signalling | 0.0003 | 12000
